Data: patent publication US20070105790A1, “Pancreatic cancer treatment using Na+/K+ ATPase inhibitors” (Bionaut Pharmaceuticals, Inc., priority 2004, published 2007)
In brackets after ≈: the same amount, converted by molar mass. Where two headings read alike, the source gives them in different places.

How the values were obtained:
cancer of the pancreas [1] = conditions: previously untreated patients; cited from earlier work
pancreatic cancer [2] = conditions: cited from earlier work
VEGF = VEGF secretion by tumor cells; assay type: cell-based; conditions: FIG. 5
cancer cell lines = assay: IC50 across several different cancer cell lines; assay type: cell-based; conditions: called predicted
cats = conditions: cited from earlier work
HIF-1α = HIF-1α induced by L-mimosone under normoxia in Hep3B cells; assay type: cell-based
Protocol: Abundance of HIF-1α and β-actin was determined by western blotting.

A549 Sentinel Line = assay: Sentinel Line beta-galactosidase reporter assay (A549); assay type: cell-based; conditions: 40 hrs; for reporter activity, Gemcitabine-induced stress response: A549 sentinel line, FACS, FIG. 7; for cell death / reporter activity: Sentinel Lines; for reporter activity: FIG. 6
Protocol: The expression level of beta-galactosidase gene in sentinel lines was determined by using a fluorescent substrate fluorescein di-B-D-Galactopyranside (FDG, Marker Gene Tech, #M0250) introduced into cells by hypotonic shock. Cleavage by beta-galactosidase results in the production of free fluorescein, which is unable to cross the plasma membrane and is trapped inside the beta-gal positive cells. Briefly, the cells to be analyzed are trypsinized, and resuspended in PBS containing 2 mM FDG (diluted from a 10 mM stock prepared in 8:1:1 mixture of water: ethanol: DMSO). The cells were then shocked for 4 minutes at 37° C. and transferred to FACS tubes containing cold 1×PBS on ice. Samples were kept on ice for 30 minutes and analyzed by FACS in FL1 channel.
Sentinel Line cells with beta-galactosidase reporter gene were plated at 1×10^5 cells/10 cm dish. […] After 40 hrs, the cells were trypsinized and the expression level of reporter gene was determined by FDG loading.
The reporter activity was measured by FACS analysis.

[3] = cited from earlier work
[4] = cited from earlier work; remark: listed apart in the source
cancer of the pancreas [5] = conditions: previously treated with 5-FU; cited from earlier work
pancreatic cancer [6] = conditions: cited from earlier work; remark: listed apart in the source
[7] = test system: rat mammary tumors induced by DMBA; conditions: relative to control group; cited from earlier work
[8] = test system: pancreatic carcinoma cells carrying a K-Ras mutation; conditions: cited from earlier work
pancreatic lesions = conditions: cited from earlier work
pancreatic tumors = conditions: cited from earlier work
[9] = molecular target: farnesyl protein transferase (FPTase) (Homo sapiens, UniProt P49354+P49356); conditions: cited from earlier work
Sequence of farnesyl protein transferase (FPTase) (P49356 whole entry, one chain of several): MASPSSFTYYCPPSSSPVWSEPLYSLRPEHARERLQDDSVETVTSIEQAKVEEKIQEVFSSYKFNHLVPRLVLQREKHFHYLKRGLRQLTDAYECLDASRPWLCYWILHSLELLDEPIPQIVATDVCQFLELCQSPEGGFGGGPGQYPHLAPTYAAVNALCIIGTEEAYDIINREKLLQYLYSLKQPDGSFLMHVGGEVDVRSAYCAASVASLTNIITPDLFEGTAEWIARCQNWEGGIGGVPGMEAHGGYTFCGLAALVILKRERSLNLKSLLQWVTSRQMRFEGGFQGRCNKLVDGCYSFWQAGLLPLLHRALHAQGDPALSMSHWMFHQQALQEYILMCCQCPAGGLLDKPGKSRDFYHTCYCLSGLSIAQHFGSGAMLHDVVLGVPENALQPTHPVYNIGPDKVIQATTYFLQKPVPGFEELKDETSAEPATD

[10] = molecular target: geranylgeranyl protein transferase (GGPTase) (Homo sapiens, UniProt P49354+P53609); conditions: cited from earlier work
Sequence of geranylgeranyl protein transferase (GGPTase) (P53609 whole entry, one chain of several): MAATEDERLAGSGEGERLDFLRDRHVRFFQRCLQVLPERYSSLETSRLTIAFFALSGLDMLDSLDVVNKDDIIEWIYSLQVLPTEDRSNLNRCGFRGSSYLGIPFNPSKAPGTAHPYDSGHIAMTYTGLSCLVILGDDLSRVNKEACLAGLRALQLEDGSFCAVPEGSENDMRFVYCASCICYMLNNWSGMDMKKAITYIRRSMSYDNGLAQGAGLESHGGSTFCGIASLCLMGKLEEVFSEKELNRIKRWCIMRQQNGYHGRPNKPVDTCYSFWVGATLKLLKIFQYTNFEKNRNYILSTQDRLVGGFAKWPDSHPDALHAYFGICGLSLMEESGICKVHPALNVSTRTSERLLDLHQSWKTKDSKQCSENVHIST

[11] = test system: end-stage pancreatic cancer; conditions: cited from earlier work
[12] = test system: advanced pancreatic cancer; conditions: in vivo; cited from earlier work
[13] = test system: C38 colon adenocarcinoma and PO3 pancreatic ductal adenocarcinoma; conditions: in vivo; cited from earlier work
pancreatic cancer [14] = conditions: 40 patients; cited from earlier work

## O=c1[nH]cc(F)c(=O)[nH]1 [5-FU, 5-fluorouracil]
Cancer of the pancreas [1]
  patients alive at 1 year after starting therapy: 1 in 50
Pancreatic cancer [2]
  response rate: less than 20%

## C[C@@H]1O[C@@H](O[C@H]2C[C@@H](O)[C@]3(CO)[C@H]4[C@H](O)C[C@]5(C)[C@@H](C6=CC(=O)OC6)CC[C@]5(O)[C@@H]4CC[C@]3(O)C2)[C@H](O)[C@H](O)[C@H]1O [BNC-1, ouabain]
VEGF
  secretion of the angiogenesis factor VEGF: inhibits
Cancer cell lines
  IC50: 9 to 35 ng/mL (≈ 0.0154 to 0.0599 µM)
mice
  toxic serum concentration at day 1: about 50+21 ng/ml
Steady state delivery in mice
  therapeutic serum concentration required to achieve >60% TGI: about 20+15 ng/ml
cats
  toxicity, duodenal administration: 5.3 mg/kg

## C[C@@H]1OC(OC2C=C3CCC4C(CC[C@]5(C)[C@@H](c6ccc(=O)oc6)CC[C@]45O)[C@@]3(C)CC2)[C@H](O)[C@H](O)[C@H]1O (stereo partly drawn) [BNC-4, proscillaridin]
HIF-1α; 200 μM L-mimosone, 18 h
  HIF-1α accumulation by L-mimosone: eliminated HIF-1α accumulation
HIF-1α; at the low concentration tested
  HIF-1α accumulation by L-mimosone: did not appear to have an effect
VEGF
  secretion of the angiogenesis factor VEGF: inhibits
A549 Sentinel Line
  reporter activity, Gemcitabine-induced stress response: significantly shift the reporter activity to the left
Cancer cell lines
  IC50: 2 to 8 ng/mL (≈ 0.00377 to 0.0151 µM)
mice
  serum levels at the maximum toxic dose (MTD): about 518 (±121) ng/ml
  toxic serum concentration at day 1: about 518+121 ng/ml
Xenograft nude mouse model
  steady state serum level at which anti-tumor activity was observed: about 50 ng/mL
[3]; in vivo
  drug and metabolites excreted by the bile: Greater than 99%
[3]; oral administration
  measurable unconjugated drug as share of administered quantity: 7%
[3]; oral
  time of second, longer-lasting peak: about 1 hour
  time of third peak after dosing: about 10 hours
cats
  toxicity, duodenal administration: 1.05 mg/kg
[4]; 0.5 mg/d i.v. for 4 d before surgery, 50 patients
  tolerance in cancer patients: well tolerated by all cancer patients
[4]; 1067 patients, up to 3 years
  patients taken off treatment for negative side effects: 0.7%
[4]; after a brief hiatus
  reported cases in which therapy could be resumed: > 95%
[4]; healthy individuals
  doses producing typical intoxication symptoms: above 4 mg p.o./d

## N.N.O=C([O-])C1(C(=O)[O-])CCC1.[Pt+2] [Carboplatin]
A549 Sentinel Line
  cell death: increases
  reporter activity: increases

## Nc1ccn([C@@H]2O[C@H](CO)[C@@H](O)C2(F)F)c(=O)n1 [Gemcitabine]
A549 Sentinel Line
  reporter activity, Gemcitabine-induced stress response: elevated reporter activity
Cancer of the pancreas [1]
  patients alive at 1 year after starting therapy: 1 in 5
  survival of the typical patient: about 6 months
Cancer of the pancreas [5]
  patients alive at 1 year: 1 in 25
  patients with symptom improvement for at least 1 month: 1 in 4
  survival of the typical patient: 4 months
Pancreatic cancer [6]; gemcitabine alone
  patients with clinical benefit: 20-30%
Pancreatic cancer [6]; human, in vivo
  1-year survival rate: 18%

## CC(C)Cc1ccc(C(C)C(=O)O)cc1 (stereo not drawn) [Ibuprofen]
[7]
  reduction in incidence of breast tumors: 40%
  reduction in multiplicity of breast tumors: 52%

## COc1cc2ncnc(Nc3ccc(F)c(Cl)c3)c2cc1OCCCN1CCOCC1 [Iressa]
A549 Sentinel Line
  reporter activity: reduction in reporter activity

## C=C(C)[C@H]1CC=C(C)CC1 [Limonene]
[8]
  growth reduction: approximately 50%

## CN(C)C(=N)N=C(N)N [Metformin]
Pancreatic lesions; 8.6 in high-fat group
  hyperplastic and premalignant lesions: 1.8 lesions per hamster
Pancreatic lesions; drinking water for life, 50% in high-fat group
  malignant lesions: none were found

## C=C(C)[C@@H]1CC=C(CO)CC1 [Perillyl alcohol]
Pancreatic tumors; hamster, in vivo
  tumors completely regressed: 16%
Pancreatic tumors; versus controls
  growth of pancreatic tumors: less than half that of controls
[9]
  inhibition of Ras prenylation: 17%
[10]
  inhibition of RhoA prenylation: 28%

## CC[C@@]1(O)C(=O)OCc2c1cc1n(c2=O)Cc2cc3c([N+](=O)[O-])cccc3nc2-1 [Rubitecan, 9-nitrocamptothecin]
[11]; 60 patients
  nonresponders: 36.6%
  patients who responded favorably: 31.7%
  patients with stabilized disease: 31.7%
[11]; nonresponders
  survival: 6.8 months
[11]; responders
  median survival: 18.6 months
[11]; stabilized disease
  median survival: 9.7 months

## Cn1c(=O)c2c(ncn2C)n(C)c1=O [caffeine]
[12]
  median duration of survival: 5 months
  patients with objective responses: 5.5%

## CC(=O)O[C@@]12CO[C@@H]1C[C@H](O)[C@@]1(C)C(=O)[C@H](O)C3=C(C)[C@@H](OC(=O)[C@H](O)[C@@H](NC(=O)OC(C)(C)C)c4ccccc4)C[C@@](O)([C@@H](OC(=O)c4ccccc4)[C@H]21)C3(C)C [docetaxel, Docetaxel]
[13]
  complete regressions: 80%
Pancreatic cancer [14]
  median duration of response: 5.1 months
  partial response: 15%
  stable disease: 38%

## O=C1c2c(O)ccc(O)c2C(=O)c2c(NCCNCCO)ccc(NCCNCCO)c21 [mitoxanthrone, mitoxantrone]
A549 Sentinel Line
  cell death: increases
  reporter activity: increases

## CC(=O)O[C@H]1C(=O)[C@@]2(C)[C@H]([C@H](OC(=O)c3ccccc3)[C@]3(O)C[C@H](OC(=O)[C@H](O)[C@@H](NC(=O)c4ccccc4)c4ccccc4)C(C)=C1C3(C)C)[C@]1(OC(C)=O)CO[C@@H]1C[C@@H]2O [paclitaxel]
A549 Sentinel Line
  cell death: increases
  reporter activity: increases
